The values below come from publication PMC10033663, “Acute pharmacological profile of 2C-B-Fly-NBOMe in male Wistar rats—pharmacokinetics, effects on behaviour and thermoregulation” (Frontiers in Pharmacology, 2023).

Data set [1] concerns male Wistar rats. Briefly: Prepulse inhibition (PPI) of acoustic startle response (ASR). The class given is in vivo. The protocol:
The effect of 2C-B-Fly-NBOMe on sensorimotor gating was evaluated by a PPI of ASR test. Two identical startle chambers (SR-LAB, San Diego Instruments, California) were used, each containing a sound-proof, evenly lit and ventilated enclosure with a plexiglass stabilimeter (8.7 cm inner diameter), a piezoelectric accelerometer for detecting amplitudes of the ASR, and a high-frequency loudspeaker producing acoustic stimuli. Amplitudes of the ASR were digitized for subsequent analysis. The experimental design was based on our previous studies ([Štefková et al., 2017]; [Šíchová et al., 2018]). Two days before the experiment, the animals were habituated to the startle chambers with a background white noise (75 dB) for 5 min, followed by six presentations of pulse-alone stimuli (125 dB, 40 ms) with pseudorandomized inter-stimulus intervals. […]
Habituation was calculated by the percentage reduction in the ASR from the initial six baseline trials to the final six trials. PPI was calculated as [100 - (mean response for the prepulse - pulse trial/startle response for the single pulse trials) × 100]. […]
Locomotor activity in OFT (mean trajectory length across 5 min blocks) was evaluated using a 2 × 4 × 6 mixed factorial ANOVA with temporal testing onset (15 or 60 min) and drug treatment (2C-B-Fly-NBOMe 0.2, 1, or 5 mg/kg or ctrl) as between-subjects factors, and time blocks (6 × 5 min intervals) as a within-subjects factor. Spatial distribution of animal movement in OFT (thigmotaxis and T center) and PPI parameters (habituation, ASR and % of PPI) were each analysed using a 2 × 4 factorial ANOVA with temporal testing onset (15 or 60 min) and drug treatment (2C-B-Fly-NBOMe 0.2, 1, or 5 mg/kg or ctrl) as between-subjects factors.

Data set [2] relates to male Wistar rats. Briefly: Thermoregulation (rectal temperature). The class given is in vivo. The conditions noted are these: 5 mg/kg s. c. The protocol:
For the assessment of rectal temperature changes, rats were housed individually or in groups of five per cage. They were treated with 2C-B-Fly-NBOMe (5 mg/kg) or ctrl solution s. c. at 9:00 h. During the measurements, each rat was briefly immobilized in a plexiglass tube and then returned to its home cage. In total, 14 measurements were performed: […] for setting the baseline temperature, and then 4 subsequent 30 min measurements (09:30–11:00 h) and 6 hourly measurements (12:00–17:00 h).
Data from thermoregulatory experiments were analysed using 2 × 2 × 14 mixed factorial design with drug treatment (2C-B-Fly-NBOMe at 5 mg/kg or ctrl) and home cage conditions (individually and group-housed animals) as between-subjects factors and time (14 measurements) as a within-subjects factor. The baseline temperatures of animals were compared in the same manner.

Data set [3] relates to male Wistar rats. Briefly: Observation of 5-HT2A-related behaviour (head-twitch response, wet dog shakes). The conditions noted are these: rat, in vivo.
Data set [4] has as its system 5-HT2A receptor. The arrangement: method as in Ettrup et al., 2011. To be noted: GF-62 cells; among the examined NBOMes; ref Ettrup et al., 2011; cited from earlier work.
Data set [5] deals with 5-HT2A receptor. The arrangement: method as in Ettrup et al., 2011. To be noted: among the examined NBOMes; ref Ettrup et al., 2011; cited from earlier work.
The conditions of data set [6]: ref Richter et al. (2020); cited from earlier work.
The conditions of data set [7]: three different systems; ref Nykodemová et al., 2021; cited from earlier work.

“Also recorded” adds a separate entry of the source. Where two headings read alike, the source gives them in different places.

In the case of `COc1ccccc1CNCCc1c2c(c(Br)c3c1OCC3)OCC2` [2C-B-Fly-NBOMe], the “percentage of PPI” value in the data set with male Wistar rats [1] (0.2, 1 and 5 mg/kg s. c., ANOVA treatment factor) is “not by treatment”. Besides, the “Habituation of ASR” value in the data set on male Wistar rats [1] (0.2, 1 and 5 mg/kg s. c., p < 0.05) was “significantly affected by drug treatment”. In the data set on male Wistar rats [1] (all doses (0.2, 1, 5 mg/kg s. c.), 15 and 60 min onset, p < 0.001), the ASR versus ctrl result is reported as “strongly disrupted; also recorded: significantly diminished ASR; also recorded: strongly attenuates ASR”. Moreover, in the data set with male Wistar rats [2] (animals housed in groups), the “trend of hypothermic reaction in group-housed animals” value is “not in animals housed in groups”. The “hypothermic trend in individually housed animals” value with male Wistar rats [2] (individually housed, first 90 min after application) is recorded as “the statistical difference was not significant”. In the data set with male Wistar rats [2] (p < 0.05), the “effect of the treatment on body temperature (ANOVA)” value is “significant effect of the treatment”. Further, in the data set on male Wistar rats [3], the “behaviour typical of 5-HT2A receptor activation (head-twitch response or wet dog shakes)” value is recorded as “did not demonstrate any behaviour”. The “binding affinity to 5-HT2A receptor” value with 5-HT2A receptor [4] is on record as “highest binding affinity”. Also, the intrinsic activity entry in the data set with 5-HT2A receptor [5] is recorded as “the lowest”. In addition, in data set [6], the “number of phase I metabolites” value is on record as “five” and the “number of phase II metabolites” value is given as “one”. Besides, in data set [7], the “number of phase I metabolites” value was “thirty-five” and the “number of phase II metabolites” value was “nine”.
